Source: patent US8916708B2, “Urea derivatives and their therapeutic use in the treatment of, inter alia, diseases of the respiratory tract” (Chiesi Farmaceutici S.p.A., priority 2010, dated 2014)
pEC50, pIC50: −log10 of the molar value.

Assays:
[1] = molecular target: T1, Human recombinant p38 enzyme (p38α) (Homo sapiens, UniProt Q16539); test: p38 Kinase Assay (ATF-2 phosphorylation ELISA); format: biochemical; conditions: 2h pre-incubation with p38 kinase, ATP 250 μM, 1% DMSO; read-out: p38α inhibition (IC50)
T1 construct: purchased Calbiochem 559324; host or cells: E. coli
Protocol: Human recombinant p38 enzyme expressed in E. coli and activated by incubation with MKK6 enzyme (Calbiochem #559324) is used as source of enzyme activity.
The assay is carried in high binding, clear, flat bottom 96 well assay plates which have been coated with recombinant ATF-2 (Biosource #PHF0043). Test compounds are incubated with p38 kinase for 2h prior to initiating the kinase assay by the addition of ATP to obtain an assay concentration of 250 μM . Phosphorylation of ATF-2 is detected and quantified using an ELISA. This consists of sequential incubation in the presence of anti-phospho-ATF2, biotinylated anti-IgG and streptavidin-HRP. Incubation with an HRP chromogenic substrate (TMB) results in absorbance that is proportional to the amount of phosphorylated substrate produced. Absorbance is detected using a multiwell plate reader.
Compounds are diluted in DMSO prior to addition to assay buffer, the final DMSO concentration in the assay being 1%.
The IC50 is defined as the concentration at which a given compound achieves 50% inhibition of control.

[2] = system: LPS activated THP-1 cells (TNFα release); test: p38 Functional Assay: TNFα release from LPS activated THP-1 cells; format: cell-based; conditions: Homo sapiens, inhibition of TNFα release, 1h pre-treatment then LPS, 0.3% DMSO
Protocol: Inhibition of cellular p38 depresses the release of TNFα, a functional response which is quantified by measurement of the amount of TNFα in the supernatants of LPS activated THP-1 cells (an immortalised monocytic cell line) or peripheral blood mononuclear cells (PBMC's) isolated from freshly drawn human blood.
Cells seeded in 96 well plates are pre-treated by the addition of p38 inhibitors for 1h followed by addition of lipopolysaccharide (LPS) to activate cytokine production and release. The amount of TNFα released into the cell supernatants is quantified using an R&D Systems enzyme linked immunosorbant assay (ELISA) kit (product DY210) following the manufacturers instructions.
Compounds are diluted in DMSO prior to addition, the final DMSO concentration in the assay being 0.3%. The EC50 is defined as the concentration at which a given compound achieves 50% inhibition of the control.

T1 sequence (Q16539 whole entry): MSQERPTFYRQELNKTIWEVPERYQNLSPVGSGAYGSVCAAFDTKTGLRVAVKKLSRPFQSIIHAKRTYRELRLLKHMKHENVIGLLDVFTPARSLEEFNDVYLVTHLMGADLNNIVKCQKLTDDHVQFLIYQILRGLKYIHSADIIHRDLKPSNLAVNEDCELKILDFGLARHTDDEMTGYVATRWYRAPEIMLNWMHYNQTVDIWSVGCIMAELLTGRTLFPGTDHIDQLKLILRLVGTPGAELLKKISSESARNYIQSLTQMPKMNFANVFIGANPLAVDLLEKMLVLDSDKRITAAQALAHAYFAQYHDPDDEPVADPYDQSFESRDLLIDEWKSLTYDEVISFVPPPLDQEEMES

pIC50 [1] | pEC50 [2] | Structure (SMILES)
7.00 to 8.00 |  | Cc1ccc(-n2nc(C(C)(C)C)cc2NC(=O)N[C@H]2CCC[C@@H](Oc3ccc4nnc(C(C)C)n4c3)c3ccccc32)cc1 (racemic) [Example 18, (+/−) 1-(5-tert-Butyl-2-p-tolyl-2H-pyrazol-3-yl)-3-[9-(3-isopropyl-[1,2,4]triazolo[4,3-a]pyridin-6-yloxy)-cis-6,7,8,9-tetrahydro-5H-benzocyclohepten-5-yl]-urea]
> 8.00 | > 8.00 | Cc1ccc(-n2nc(C(C)(C)C)cc2NC(=O)N[C@H]2CC[C@@H](Oc3ccc4nnc(C(C)C)n4c3)c3ccccc32)cc1 [Example 10, 1-(5-tert-Butyl-2-p-tolyl-2H-pyrazol-3-yl)-3-[(1S,4R)-4-(3-isopropyl-[1,2,4]triazolo[4,3-a]pyridin-6-yloxy)-1,2,3,4-tetrahydro-naphthalen-1-yl]-urea]
7.00 to 8.00 |  | Cc1ccc(-n2nc(C(C)(C)C)cc2NC(=O)N[C@H]2CCC[C@H](Oc3ccc4nnc(C(C)C)n4c3)c3ccccc32)cc1 (racemic) [Example 19, (+/−) 1-(5-tert-Butyl-2-p-tolyl-2H-pyrazol-3-yl)-3-[9-(3-isopropyl-[1,2,4]triazolo[4,3-a]pyridin-6-yloxy)-trans-6,7,8,9-tetrahydro-5H-benzocyclohepten-5-yl]-urea]
> 8.00 | > 8.00 | Cc1ccc(-n2nc(C(C)(C)C)cc2NC(=O)N[C@H]2CC[C@@H](Oc3ccc4nnc(C(C)C)n4c3)c3ccccc32)cc1 (racemic) [Example 1, (+/−) 1-(5-tert-Butyl-2-p-tolyl-2H-pyrazol-3-yl)-3-[4-(3-isopropyl-[1,2,4]-triazolo[4,3-a]pyridin-6-yloxy)-cis-1,2,3,4-tetrahydro-naphthalen-1-yl]-urea]
6.30 to 7.00 |  | Cc1ccc(-n2nc(C(C)(C)C)cc2NC(=O)N[C@@H]2CC[C@@H](Oc3ccc4nnc(C(C)C)n4c3)c3ccccc32)cc1 [Example 8, 1-(5-tert-Butyl-2-p-tolyl-2H-pyrazol-3-yl)-3-[(1R,4R)-4-(3-isopropyl-[1,2,4]triazolo[4,3-a]pyridin-6-yloxy)-1,2,3,4-tetrahydro-naphthalen-1-yl]-urea]
6.30 to 7.00 |  | Cc1ccc(-n2nc(C(C)(C)C)cc2NC(=O)N[C@@H]2CC[C@H](Oc3ccc4nnc(C(C)C)n4c3)c3ccccc32)cc1 [Example 9, 1-(5-tert-Butyl-2-p-tolyl-2H-pyrazol-3-yl)-3-[(1R,4S)-4-(3-isopropyl-[1,2,4]triazolo[4,3-a]pyridin-6-yloxy)-1,2,3,4-tetrahydro-naphthalen-1-yl]-urea]
6.30 to 7.00 |  | Cc1ccc(-n2nc(C(C)(C)C)cc2NC(=O)N[C@@H]2C[C@@H](Oc3ccc4nnc(C(C)C)n4c3)c3ccccc32)cc1 [Example 12, 1-(5-tert-Butyl-2-p-tolyl-2H-pyrazol-3-yl)-3-[(1R,3R)-3-(3-isopropyl[1,2,4]triazolo[4,3a]pyridin-6-yloxy)-indan-1-yl]urea]
> 8.00 | > 8.00 | Cc1ccc(-n2nc(C(C)(C)C)cc2NC(=O)N[C@H]2CC[C@H](Oc3ccc4nnc(C(C)C)n4c3)c3ccccc32)cc1 [Example 11, 1-(5-tert-Butyl-2-p-tolyl-2H-pyrazol-3-yl)-3-[(1S,4S)-4-(3-isopropyl-[1,2,4]triazolo[4,3-a]pyridin-6-yloxy)-1,2,3,4-tetrahydro-naphthalen-1-yl]-urea]
> 8.00 | > 8.00 | Cc1ccc(-n2nc(C(C)(C)C)cc2NC(=O)N[C@H]2CC[C@H](Oc3ccc4nnc(C(C)C)n4c3)c3ccccc32)cc1 (racemic) [Example 2, (+/−) 1-(5-tert-Butyl-2-p-tolyl-2H-pyrazol-3-yl)-3-[4-(3-isopropyl[1,2,4]triazolo[4,3-a]pyridin-6-yloxy)-trans-1,2,3,4-tetrahydro-naphthalen-1-yl]-urea]

Second part, the compound before the results:

Structure (SMILES) | pIC50 [1] | pEC50 [2]
Cc1ccc(-n2nc(C(C)(C)C)cc2NC(=O)N[C@@H]2C[C@H](Oc3ccc4nnc(C(C)C)n4c3)c3ccccc32)cc1 [Example 14, 1-(5-tert-Butyl-2-p-tolyl-2H-pyrazol-3-yl)-3-[(1R,3S)-3-(3-isopropyl-[1,2,4]-triazolo[4,3-a]pyridin-6-yloxy)-indan-1-yl]-urea] | 5.15 to 6.30 | 
CC(C)c1nnc2ccc(O[C@H]3CC[C@H](NC(=O)Nc4cc(C(C)(C)C)on4)c4ccccc43)cn12 [Example 16, 1-(5-tert-Butyl-isoxazol-3-yl)-3-[(1S,4S)-4-(3-isopropyl-[1,2,4]-triazolo[4,3-a]pyridin-6-yloxy)-1,2,3,4-tetrahydro-naphthalen-1-yl]-urea] | > 8.00 | 
Cc1ccc(-n2nc(C(C)(C)C)cc2NC(=O)N[C@H]2C[C@@H](Oc3ccc4nnc(C(C)C)n4c3)c3ccccc32)cc1 [Example 15, 1-(5-tert-Butyl-2-p-tolyl-2H-pyrazol-3-yl)-3-[(1S,3R)-3-(3-isopropyl-[1,2,4]triazolo[4,3-a]pyridin-6-yloxy)-indan-1-yl]-urea] | 5.15 to 6.30 | 
Cc1ccc(-n2nc(C(C)(C)C)cc2NC(=O)N[C@H]2CC[C@@H](Oc3ccc4nnc(-c5ccccc5OCc5ccccc5)n4c3)c3ccccc32)cc1 (racemic) [Example 5] | 7.00 to 8.00 | 
CC(C)c1nnc2ccc(O[C@@H]3CC[C@H](NC(=O)Nc4cc(C(C)(C)C)on4)c4ccccc43)cn12 (racemic) [Example 6, (+/−) 1-(5-tert-Butyl-isoxazol-3-yl)-3-[4-(3-isopropyl-[1,2,4]triazolo[4,3-a]pyridin-6-yloxy)-cis-1,2,3,4-tetrahydro-naphthalen-1-yl]-urea] | > 8.00 | > 8.00
Cc1ccc(-n2nc(C(C)(C)C)cc2NC(=O)N[C@H]2C[C@H](Oc3ccc4nnc(C(C)C)n4c3)c3ccccc32)cc1 [Example 13, 1-(5-tert-Butyl-2-p-tolyl-2H-pyrazol-3-yl)-3-[(1S,3S)-3-(3-isopropyl-[1,2,4]triazolo[4,3-a]pyridin-6-yloxy)-indan-1-yl]-urea] | > 8.00 | 
COc1c(NC(=O)N[C@H]2CC[C@H](Oc3ccc4nnc(C(C)C)n4c3)c3ccccc32)cc(C(C)(C)C)cc1NS(C)(=O)=O [Example 17, N-(5-tert-Butyl-3-{3-[(1S,4S)-4-(3-isopropyl-[1,2,4]triazolo[4,3-a]pyridin-6-yloxy)-1,2,3,4-tetrahydro-naphthalen-1-yl]-ureido}-2-methoxy-phenyl)-methanesulfonamide] | > 8.00 | 
Cc1ccc(-n2nc(C(C)(C)C)cc2NC(=O)N[C@H]2CC[C@@H](Oc3ccc4nnc(-c5ccccc5Cl)n4c3)c3ccccc32)cc1 (racemic) [Example 3, (+/−)1-(5-tert-Butyl-2-p-tolyl-2H-pyrazol-3-yl)-3-{4-[3-(2-chloro-phenyI)-[1,2,4]triazolo[4,3-a]pyridin-6-yloxy]-cis-1,2,3,4-tetrahydro-naphthalen-1-yl}-urea] | > 8.00 | > 8.00
Cc1ccc(-n2nc(C(C)(C)C)cc2NC(=O)N[C@H]2CC[C@@H](Oc3ccc4nnc(-c5ccccc5O)n4c3)c3ccccc32)cc1 (racemic) [Example 7, (+/−) 1-(5-tert-Butyl-2-p-tolyl-2H-pyrazol-3-yl)-3-{4-[3-(2-hydroxy-phenyl) [1,2,4]triazolo[4,3-a]pyridin-6-yloxy]-cis-1,2,3,4-tetrahydro-naphthalen-1-yl}-urea] | > 8.00 | > 8.00
Cc1ccc(-n2nc(C(C)(C)C)cc2NC(=O)N[C@H]2CC[C@@H](Oc3ccc4nnc(-c5c(Cl)cccc5Cl)n4c3)c3ccccc32)cc1 (racemic) [Example 4, (+/−)1-(5-tert-Butyl-2-p-tolyl-2H-pyrazol-3-yl)-3-{4-[3-(2,6-dichloro-phenyl)[1,2,4]triazolo[4,3-a]pyridin-6-yloxy]-cis-1,2,3,4-tetrahydro-naphthalen-1-yl}-urea] | > 8.00 | > 8.00
Cc1ccc(-n2nc(C(C)(C)C)cc2NC(=O)N[C@H]2CC[C@H](Oc3ccc4nnc(-c5ccccc5SCCO)n4c3)c3ccccc32)cc1 [Example 20, 1-(5-tert-Butyl-2-p-tolyl-2H-pyrazol-3-yl)-3-((1S,4S)-4-{3-[2-(2-hydroxy-ethylsulfanyl)-phenyl]-[1,2,4]triazolo[4,3-a]pyridin-6-yloxy}-1,2,3,4-tetrahydro-naphthalen-1-yl)-urea] | > 8.00 | 
COCC(=O)Nc1cc(CO[C@H]2CC[C@H](NC(=O)Nc3cc(C(C)(C)C)nn3-c3ccc(C)cc3)c3ccccc32)ccn1 [Example 22, N-(4-{(1S,4S)-4-[3-(5-tert-Butyl-2-p-tolyl-2H-pyrazol-3-yl)-ureido]-1,2,3,4-tetrahydro-naphthalen-1-yloxymethyl}-pyridin-2-yl)-2-methoxy-acetamide] | > 8.00 | 
